Data reported in patent publication US8680159B2, “Bradykinin 1 receptor modulating compounds” (Gruenenthal GmbH, priority 2010, dated 2014).

Each compound was assayed against T1, human B1R receptor (CHO K1 cells stably transfected with the human B1R gene) (Homo sapiens, UniProt P46663) (assay: Functional study on the bradykinin receptor 1 (B1R), Ca2+ fluorescence (Fluo-4) FLIPR/Novostar assay, hB1R cells). Settings: CHO-K1, read-out: % Inhibition (h-B1R) at 10 μM.
T1 construct: expressed in transfected cells; host or cells: CHO K1 cells (Chinese hamster ovary), stably transfected
T1 sequence (P46663 1-353): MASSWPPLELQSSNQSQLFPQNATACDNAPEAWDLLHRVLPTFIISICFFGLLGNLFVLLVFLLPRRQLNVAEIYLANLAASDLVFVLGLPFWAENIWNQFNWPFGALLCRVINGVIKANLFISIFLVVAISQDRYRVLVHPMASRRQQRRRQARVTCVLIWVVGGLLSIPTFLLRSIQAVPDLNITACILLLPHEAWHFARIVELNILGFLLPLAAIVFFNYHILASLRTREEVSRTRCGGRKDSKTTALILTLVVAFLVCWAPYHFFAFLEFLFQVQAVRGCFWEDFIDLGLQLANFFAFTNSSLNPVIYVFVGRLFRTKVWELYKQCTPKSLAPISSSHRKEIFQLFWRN
Type: cell-based
Description: The agonistic or antagonistic action of substances can be quantified on the bradykinin receptor 1 (B1R) of the species human and rat using ectopically expressing cell lines (CHO K1 cells) and with the aid of a Ca^2+-sensitive dye (Fluo-4) using a fluorescent imaging plate reader (FLIPR). The indication in % activation is based on the Ca^2+ signal after addition of Lys-Des-Arg^9-bradykinin (0.5 nM) or Des-Arg^9-bradykinin (100 nM). Antagonists lead to suppression of the Ca^2+ influx after the addition of the agonist. % Inhibition compared with the maximum achievable inhibition is indicated.
The agonistic or antagonistic action of substances can be determined on the bradykinin receptor 1 (B1R) of the species human and rat using the following assay. According to this assay, the increase in intracellular Ca^2+ following administration of a B1R agonist is quantified with the aid of a Ca^2+-sensitive dye (Fluo-4 type, Molecular Probes Europe BV, Leiden, Netherlands) using a Fluorescent Imaging Plate Reader (FLIPR, Molecular Devices, Sunnyvale, USA) and/or using a Novostar (BMG Labtech GmbH, Offenburg, Germany).
Chinese hamster ovary cells (CHO K1 cells) which have been stably transfected with the human B1R gene (hB1R cells) or with the B1R gene of the rat (rB1R cells) are used. For functional studies, the cells are plated out on black 96-well plates having a clear base (BD Biosciences, Heidelberg, Germany or Greiner, Frickenhausen, Germany) in a density of 20,000-35,000 cells/well. The cells are left overnight at 37° C. and with 5% CO2 in culture medium (hB1R cells: Nutrient Mixture Ham's F12, Gibco Invitrogen GmbH, Karlsruhe, Germany or DMEM, Sigma-Aldrich, Taufkirchen, Germany; rB1R cells: D-MEM/F12, Gibco Invitrogen GmbH, Karlsruhe, Germany), with 10 vol. % FBS (fetal bovine serum, Gibco Invitrogen GmbH, Karlsruhe, Germany or PAN Biotech GmbH, Aidenbach, Germany). On the following day, the cells are loaded for 60 minutes at 37° C. with 2.13 μM Fluo-4 (Molecular Probes Europe BV, Leiden, Netherlands) in HBSS buffer (Hank's buffered saline solution, Gibco Invitrogen GmbH, Karlsruhe, Germany) […] (Sigma-Aldrich, Taufkirchen, Germany) and 10 mM HEPES (Sigma-Aldrich, Taufkirchen, Germany). The plates are then washed twice with HBSS buffer, and HBSS buffer additionally containing 0.1% BSA (bovine serum albumin; Sigma-Aldrich, Taufkirchen, Germany), 5.6 mM glucose and 0.05% gelatin (Merck KGaA, Darmstadt, Germany) is added to the plates. After incubation for a further 20 minutes at room temperature, the plates are inserted into the FLIPR or Novostar for Ca^2+ measurement. Alternatively, washing is carried out with buffer A (15 mM HEPES, 80 mM NaCl, 5 mM KCl, 1.2 mM CaCl2, 0.7 mM MgSO4, 2 g/l glucose, 2.5 mM probenecid) followed by loading with buffer A with added 2.5 μM Fluo-4 and 0.025% Pluronic F127 (Sigma-Aldrich, Taufkirchen, Germany). The cells are then washed twice with buffer A and incubated for 30 minutes at room temperature with buffer A additionally containing 0.05% BSA and 0.05% gelatin and are then inserted into the FLIPR or Novostar for Ca^2+ measurement. The Ca^2+-dependent fluorescence is measured before and after the addition of substances (λex=488 nm, λem=540 nm). Quantification is carried out by measuring the highest fluorescence intensity (FC, fluorescence counts) over time.
The FLIPR protocol consists of 2 substance additions, which are pipetted in the FLIPR. In the case of measurements using the Novostar, only the second substance addition is pipetted in the device. Both devices measure the fluorescence intensity over time. Test substances (10 μM) are first pipetted onto the cells and the intracellular Ca^2+ increase is compared with the control (hB1R: Lys-Des-Arg^9-bradykinin>=50 nM; rB1R: Des-Arg^9-bradykinin>=1 μM). This gives the % activation, based on the Ca^2+ signal after addition of Lys-Des-Arg^9-bradykinin (>=50 nM) or Des-Arg^9-bradykinin (>=1 μM). […]

Structure (SMILES) | inhibition at 10 µM [%]
Cc1cc(N2CCC(N(C)C(=O)c3ccc4c(c3)C(N(C)C(=O)CC(C)C)CC4)CC2)cc(C)n1 (stereo not drawn) [CC_H-90, N-[1-(2,6-Dimethyl-pyridin-4-yl)-piperidin-4-yl]-N-methyl-3-[methyl-(3-methyl-butanoyl)-amino]-2,3-dihydro-1H-indene-5-carboxylic acid amide] | 100
Cc1cc(N2CCC(N(C)C(=O)c3ccc4c(c3)C(N(C)C(=O)c3c(C)cccc3C)CC4)CC2)cc(C)n1 (stereo not drawn) [CC_H-91, 3-[(2,6-Dimethyl-benzoyl)-methyl-amino]-N-[1-(2,6-dimethyl-pyridin-4-yl)-piperidin-4-yl]-N-methyl-2,3-dihydro-1H-indene-5-carboxylic acid amide] | 99
CN(C(=O)c1ccc2c(c1)C(NS(=O)(=O)c1c(Cl)cccc1C(F)(F)F)CC2(C)C)C1CCN(c2ccncc2)CC1 (stereo not drawn) [CC_H-93, 3-[[[2-Chloro-6-(trifluoromethyl)-phenyl]sulfonyl]amino]-N,1,1-trimethyl-N-(1-pyridin-4-yl-piperidin-4-yl)-2,3-dihydro-indene-5-carboxylic acid amide] | 100
Cc1cc(N2CCC(N(C)C(=O)c3ccc4c(c3)C(NC(=O)c3cccc(Cl)c3Cl)CC4)CC2)cc(C)n1 (stereo not drawn) [CC_H-96, 3-[(2,3-Dichloro-benzoyl)amino]-N-[1-(2,6-dimethyl-pyridin-4-yl)-piperidin-4-yl]-N-methyl-2,3-dihydro-1H-indene-5-carboxylic acid amide] | 100
CN(C(=O)c1ccc2c(c1)C(NC(=O)C(C)(C)c1ccccc1Cl)CCO2)C1CCN(c2ccncc2)CC1 (stereo not drawn) [CC_H-97, 4-[[2-(2-Chlorophenyl)-2-methyl-propanoyl]amino]-N-methyl-N-(1-pyridin-4-yl-piperidin-4-yl)-3,4-dihydro-2H-chromene-6-carboxylic acid amide] | 92
Cc1cc(N2CCC(N(C)C(=O)c3ccc4c(c3)C(NC(=O)c3ccccc3Cl)CC4)CC2)cc(C)n1 (stereo not drawn) [CC_H-99, 3-[(2-Chloro-benzoyl)amino]-N-[1-(2,6-dimethyl-pyridin-4-yl)-piperidin-4-yl]-N-methyl-2,3-dihydro-1H-indene-5-carboxylic acid amide] | 100
CN(C(=O)c1ccc2c(c1)CCC2NC(=O)C(C)(C)c1ccccc1Cl)C1CCN(c2ccncc2)CC1 (stereo not drawn) [CC_H-100, 1-[[2-(2-Chlorophenyl)-2-methyl-propanoyl]amino]-N-methyl-N-(1-pyridin-4-yl-piperidin-4-yl)-2,3-dihydro-1H-indene-5-carboxylic acid amide] | 77
O=C(CCC1CCCC1)NC1CCc2ccc(C(=O)NCCC3CCN(c4ccncc4)CC3)cc21 (stereo not drawn) [CC_H-101, 3-(3-Cyclopentyl-propanoylamino)-N-[2-(1-pyridin-4-yl-piperidin-4-yl)-ethyl]-2,3-dihydro-1H-indene-5-carboxylic acid amide] | 100
CN(C(=O)c1ccc2c(c1)C(NC(=O)C(C)(C)c1ccccc1Cl)CCC2)C1CCN(c2ccncc2)CC1 (stereo not drawn) [CC_H-102, 8-[[2-(2-Chlorophenyl)-2-methyl-propanoyl]amino]-N-methyl-N-(1-pyridin-4-yl-piperidin-4-yl)-5,6,7,8-tetrahydro-naphthalene-2-carboxylic acid amide] | 99
CC(C)(C(=O)NC1CCc2ccc(C(=O)NCCC3CCN(c4ccncc4)CC3)cc21)c1ccccc1Cl (stereo not drawn) [CC_H-103, 3-[[2-(2-Chlorophenyl)-2-methyl-propanoyl]amino]-N-[2-(1-pyridin-4-yl-piperidin-4-yl)-ethyl]-2,3-dihydro-1H-indene-5-carboxylic acid amide] | 89
CN(C(=O)c1ccc2c(c1)C(N(C)C(=O)c1ccccc1Cl)CC2)C1CCN(c2ccncc2)CC1 (stereo not drawn) [CC_H-106, 3-[(2-Chloro-benzoyl)-methyl-amino]-N-methyl-N-(1-pyridin-4-yl-piperidin-4-yl)-2,3-dihydro-1H-indene-5-carboxylic acid amide] | 100
Cc1cc(N2CCC(N(C)C(=O)c3ccc4c(c3)C(NC(=O)c3c(Cl)cccc3C(F)(F)F)CC4)CC2)cc(C)n1 (stereo not drawn) [CC_H-107, 3-[[2-Chloro-6-(trifluoromethyl)-benzoyl]amino]-N-[1-(2,6-dimethyl-pyridin-4-yl)-piperidin-4-yl]-N-methyl-2,3-dihydro-1H-indene-5-carboxylic acid amide] | 97

Further lines, results first:

inhibition at 10 µM [%] | Structure (SMILES)
98 | Cc1cc(N2CCC(N(C)C(=O)c3ccc4c(c3)C(N(C)C(=O)c3cncnc3)CC4)CC2)cc(C)n1 (stereo not drawn) [CC_H-92, N-[6-[[1-(2,6-Dimethyl-pyridin-4-yl)-piperidin-4-yl]-methyl-carbamoyl]-2,3-dihydro-1H-inden-1-yl]-N-methyl-pyrimidine-5-carboxylic acid amide]
100 | CN(C(=O)NC1CCCc2ccc(C(=O)N(C)C3CCN(c4ccncc4)CC3)cc21)c1ccccc1Cl (stereo not drawn) [CC_H-94, 8-[[(2-Chlorophenyl)-methyl-carbamoyl]amino]-N-methyl-N-(1-pyridin-4-yl-piperidin-4-yl)-5,6,7,8-tetrahydro-naphthalene-2-carboxylic acid amide]
100 | CN(C(=O)c1ccc2c(c1)C(NC(=O)C(C)(C)c1ccccc1Cl)CC2(C)C)C1CCN(c2ccncc2)CC1 (stereo not drawn) [CC_H-95, 3-[[2-(2-Chlorophenyl)-2-methyl-propanoyl]amino]-N,1,1-trimethyl-N-(1-pyridin-4-yl-piperidin-4-yl)-2,3-dihydro-indene-5-carboxylic acid amide]
92 | CN(C(=O)c1ccc2c(c1)C(NC(=O)C(C)(C)c1ccccc1Cl)CC2)C1CCN(c2ccc3cnccc3c2)CC1 (stereo not drawn) [CC_H-98, 3-[[2-(2-Chlorophenyl)-2-methyl-propanoyl]amino]-N-(1-isoquinolin-6-yl-piperidin-4-yl)-N-methyl-2,3-dihydro-1H-indene-5-carboxylic acid amide]
100 | CN(C(=O)NC1CCc2ccc(C(=O)N(C)C3CCN(c4ccc5cnccc5c4)CC3)cc21)c1ccccc1Cl (stereo not drawn) [CC_H-104, 3-[[(2-Chlorophenyl)-methyl-carbamoyl]amino]-N-(1-isoquinolin-6-yl-piperidin-4-yl)-N-methyl-2,3-dihydro-1H-indene-5-carboxylic acid amide]
90 | Cc1cccc(C)c1C(=O)NC1CCc2ccc(C(=O)NCCC3CCN(c4ccncc4)CC3)cc21 (stereo not drawn) [CC_H-105, 3-[(2,6-Dimethyl-benzoyl)amino]-N-[2-(1-pyridin-4-yl-piperidin-4-yl)-ethyl]-2,3-dihydro-1H-indene-5-carboxylic acid amide]
